The source of these data is patent US12044684B2, “Methods for diagnosing an autistic spectrum disorder” (QATAR UNIVERSITY, priority 2018, dated 2024).

This data set is described as follows: Renal clearance (CL) of free adducts and unmodified amino acids deduced from plasma and spot urine. It counts as in vivo, human. An excerpt: In one embodiment, renal clearance amino acid adducts is deduced from the concentration of an amino acid adduct detected in a plasma and urine sample according to the following equation: CL (μl/mg creatinine or ml/mg creatinine)=[Analyte]Urine (nmol/mg creatinine)/[Analyte]Plasma (pmol/ml or nmol/ml).
Oxidation, nitration and glycation adduct residues are normalised to their amino acid residue precursors and given as mmol/mol amino acid modified; and related free adducts are given in nM. […] Renal clearance (CL) of glycation, oxidation and nitration free adducts and unmodified amino acids was deduced from plasma and spot urine collections: CL (μl/mg creatinine or ml/mg creatinine)=[Analyte]Urine (nmol/mg creatinine)/[Analyte]Plasma (pmol/ml or nmol/ml).

Where [1] appears, read: children with ASD with respect to healthy controls.

Regarding `C[C@@H](O)[C@H](N)C(=O)O` [thr, threonine], the “renal clearance, change” value under setting [1] is given as “decreased”. For the compound `N=C(N)NCCC[C@H](N)C(=O)O` [arg, arginine], where the note is “children with ASD compared to healthy control, P<0.001”, the “decrease in renal clearance (CL)” value worked out at 32%. Besides, the “renal clearance, change” value under setting [1] is “decreased”.

`CC(C)C[C@H](N)C(=O)O` [leu, leucine]: the “renal clearance, change” value under setting [1] is on record as “decreased”. As for `N=C(NCCC[C@H](N)C(=O)O)NCC(=O)O` [CMA, Nω-carboxymethylarginine], under “in vivo”, the “decrease in renal clearance (CL)” value is reported as 50% and the “renal clearance, change” value is given as “decreased”. As to `NC(CC(=O)c1ccccc1NC=O)C(=O)O` (stereo not drawn) [NFK, N-formylkynurenine], the “renal clearance, change” value under setting [1] is reported as “increased”. For the compound `N[C@@H](CCC(=O)O)C(=O)O` [glu, glutamate], under setting [1], the “renal clearance, change” value is reported as “decreased”. Still for that read-out and setting: in the case of `N[C@@H](Cc1ccccc1)C(=O)O` [phe, phenylalanine] it was “decreased”; in that of `NC(Cc1ccc(O)c(-c2cc(CC(N)C(=O)O)ccc2O)c1)C(=O)O` (stereo not drawn) [DT, dityrosine], “decreased”; in that of `N[C@@H](Cc1c[nH]c2ccccc12)C(=O)O` [trp, tryptophan], “increased”. Still for that read-out and setting: in the case of `N[C@@H](CCCCN1C[C@@H](O)[C@@H](O)CC2NC(=NCCC[C@H](N)C(=O)O)N=C21)C(=O)O` (stereo partly drawn) [GSP, glucosepane] it was “decreased”.
